Counter-ions that a name gives are not always drawn. Like-named read-outs stand apart in the source and are kept apart here.
Assays:
[1] = target: T1, BChE from equine serum (Equus caballus, UniProt P81908); assay: In vitro anticholinesterase assay (UPLC-ESI MS/MS), BChE; assay type: biochemical; settings: for IC50: means ± SD of three replicate determinations; for fold reduction of BChE inhibitory activity: VAO vs VAS, VAO-3-S vs VAS-3-S, VAS-3-G vs VAS
T1 construct: BChE from equine serum; purchased Sigma Aldrich Co. (St. Louis, MO, USA); host or cells: equine serum
T1 sequence (P81908 whole entry): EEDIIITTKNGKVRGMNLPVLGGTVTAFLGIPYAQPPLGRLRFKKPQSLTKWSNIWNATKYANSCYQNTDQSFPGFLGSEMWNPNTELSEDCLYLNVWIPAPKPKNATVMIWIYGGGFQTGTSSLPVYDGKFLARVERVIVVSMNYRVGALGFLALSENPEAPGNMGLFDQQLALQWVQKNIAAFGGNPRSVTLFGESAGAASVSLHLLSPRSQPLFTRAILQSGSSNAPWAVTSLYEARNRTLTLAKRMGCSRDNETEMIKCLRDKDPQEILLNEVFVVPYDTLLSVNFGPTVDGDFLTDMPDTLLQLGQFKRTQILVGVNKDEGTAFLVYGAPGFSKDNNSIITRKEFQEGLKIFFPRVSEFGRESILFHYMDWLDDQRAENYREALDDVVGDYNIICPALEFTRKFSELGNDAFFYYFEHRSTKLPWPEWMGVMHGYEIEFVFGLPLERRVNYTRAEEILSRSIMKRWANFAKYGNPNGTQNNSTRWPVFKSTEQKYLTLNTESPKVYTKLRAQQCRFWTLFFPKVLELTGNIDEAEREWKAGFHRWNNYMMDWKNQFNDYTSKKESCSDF
Experimental: (§1) VAS and VAO were isolated from P. harmala in our laboratory according to a previously reported method. VAS and VAO structures were elucidated by comparing their spectral data (UV, MS, ^1H-NMR, and ^13C NMR) with the references. The purities of VAS and VAO were determined to be more than 98% through normalization of the peak areas detected by HPLC-DAD, UPLC-MS/MS, ^1H-NMR, and ^13C NMR. AChE from Electrophorus electricus, BChE from equine serum, acetylcholine (ACh) chloride, butyrocholine (BCh) chloride, choline (Ch) chloride, chlormequat (internal standard, IS), glucose 6-phosphate, glucose-6-phosphate dehydrogenase, NADP, UDPGA, alamethicin, fetal bovine serum, dexamethasone, and insulin were purchased from Sigma Aldrich Co. (St. Louis, MO, USA). Tris base and MgCl2 were purchased from Majorbio Biotech Corp., Ltd. (Shanghai, China). MCI Gel CHP 20P was purchased from Mitsubishi Chemical Crop. (Tokyo, Japan). Silica Gel C18 (MB 100-40/75) was purchased from Fuji Silysia Chemical Ltd. (Kasugai, Japan). Acetonitrile and methanol of HPLC grade were purchased from Fisher Scientific Co. (Santa Clara, USA). HPLC grade 96% formic acid was purchased from Tedia Co. (Fairfield, USA). Water was produced with a Milli-Q Academic System (Millipore, Billerica, MA). All other reagents and solvents were either analytical or HPLC grade.
(§2) The AChE and BChE inhibitory activities of VAS and its main metabolites, namely, VAO, VASL, VAOL, VAS-3-S, VAO-3-S, and VAS-3-G, were evaluated based on our previously established method. A 50 μL incubation system composed of 10 μL of the test compound solution (all the test compound solutions were diluted to a series of concentrations with buffer solution before each experiment) and 40 μL of the enzyme solutions (with final concentrations: 0.0035 unit/mL for AChE, or 0.008 unit/mL for BChE) were mixed and pre-incubated for 15 min. Up to 50 μL of substrate solution (final concentration of 5.505 μM for ACh, or 7.152 μM for BCh) was added into the mixture, which was then incubated for 20 min at 25°C. The reaction was terminated by addition of 300 μL of ice acetonitrile solution (0°C), which was immediately dissolved with 1.899 μM IS (chlormequat). The solution was then centrifuged (15,000 × g, 10 min), and the supernatant was used for analysis by UPLC-ESI MS/MS. The inhibitive IC50 values of VAS and its key metabolites on AChE and BChE were calculated using the Prism software (GraphPad Software Inc., San Diego, CA).

[2] = target: T2, AChE from Electrophorus electricus (Electrophorus electricus, UniProt O42275); assay: biochemical; assay type: biochemical; settings: for IC50: means ± SD of three replicate determinations; for fold reduction of AChE inhibitory activity: VAO vs VAS, VAO-3-S vs VAS-3-S, VAS-3-G vs VAS
T2 construct: purchased Sigma Aldrich Co. (St. Louis, MO, USA)
T2 sequence (O42275 24-633): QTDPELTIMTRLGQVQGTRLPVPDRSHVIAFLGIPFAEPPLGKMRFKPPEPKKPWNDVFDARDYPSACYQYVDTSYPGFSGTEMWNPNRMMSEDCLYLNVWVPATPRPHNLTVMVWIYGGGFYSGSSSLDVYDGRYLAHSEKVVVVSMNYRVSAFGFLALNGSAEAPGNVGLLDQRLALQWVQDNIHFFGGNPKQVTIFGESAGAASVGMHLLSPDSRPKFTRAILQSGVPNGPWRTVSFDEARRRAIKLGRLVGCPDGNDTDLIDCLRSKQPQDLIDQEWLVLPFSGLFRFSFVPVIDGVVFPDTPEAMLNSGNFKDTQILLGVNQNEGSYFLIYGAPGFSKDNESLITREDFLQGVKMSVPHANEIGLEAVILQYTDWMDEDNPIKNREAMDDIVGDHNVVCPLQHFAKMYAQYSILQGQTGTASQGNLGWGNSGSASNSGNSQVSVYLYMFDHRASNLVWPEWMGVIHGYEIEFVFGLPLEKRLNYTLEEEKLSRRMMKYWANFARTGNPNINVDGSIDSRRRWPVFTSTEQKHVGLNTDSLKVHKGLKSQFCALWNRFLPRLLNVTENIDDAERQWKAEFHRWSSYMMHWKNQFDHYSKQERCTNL
Description: as §1, with “The purities of VAS and VAO were determined to be more than 98% through normalization of the peak areas detected by HPLC-DAD, UPLC-MS/MS, ^1H-NMR, and ^13C NMR.” left out
as §2

[3] = Metabolite detection in rat bio-specimens (urine, feces, bile, plasma) by UPLC/ESI-QTOF-MS after oral VAS; assay type: in vivo
Description: Bio-specimens (urine, feces, bile and plasma) collected form 18 male rats were used to study the VAS metabolism in vivo. […] Baseline urine and fecal samples were collected before oral administration of VAS. After intraperitoneal injection of urethane (1.4 g/kg), abdominal incision was made for bile sampling and the common bile duct was cannulated with a Closed IV Catheter System (ID = 0.07 cm, Becton Dickinson, USA) to collect bile samples. […] Baseline rat bile was collected before oral administration of VAS. All the samples were stored at −20°C until analysis. Blood was collected from the angular vein of the last six male rats at 0.25, 0.5, 1, and 2 h after oral administration of VAS 50 mg/kg VAS. Plasma was obtained by centrifuging blood at 4000 × g for 10 min, and then stored at −20°C until use.
Up to 1 mL of urine was thoroughly mixed with same volume of acetonitrile, and then centrifuged at 15,000 × g for 10 min. The supernatant was evaporated until dry under nitrogen at 37°C. The residue of the supernatant was re-dissolved in 200 μL of 5% methanol, and then centrifuged at 15,000 × g for 10 min. The supernatant was injected into the chromatographic systems for separation and identification of metabolites.
The supernatant was then evaporated to dryness by a gentle stream of nitrogen at 37°C. The residue was dissolved by 200 μL of 5% methanol and centrifuged at 15,000 × g for 10 min prior to injection.
Plasma or bile (400 μL) was mixed and vortexed with 1200 μL of acetonitrile for […], then centrifuged at 15,000 × g for 10 min at 4°C. Afterward, the supernatant was evaporated until dry by a gentle stream of nitrogen at 37°C. The residue was dissolved by 80 μL of 5% methanol and centrifuged at 15,000 × g for 10 min. The supernatants (5 μL) were used in the UPLC/ESI-QTOF-MS analysis.
Chromatographic analysis was performed on an HSS T3 column (100 mm × 2.1 mm, 1.8 μm particle size; Waters Corporation, Milford, MA, USA) for separation of samples using an ACQUITY UPLC system equipped with a binary solvent manager system and an autosampler. […] The flow rate was 0.4 mL/min. The column and sample-tray temperatures were maintained at 40°C and 10°C, respectively.
A Waters ACQUITY Synapt G2 Q/TOF tandem mass spectrometer was combined with the UPLC system through an electrospray ionization (ESI) interface and controlled by Masslynx software (version 4.1, Waters Corp., Manchester, UK). The positive ionization mode of ESI source was operated. The optimized conditions for maximum detection of metabolites were as follows: source temperature, 120°C; desolvation temperature, 400°C; capillary voltage, 3.0 kV; sample cone, 30 V and extraction cone, 4.0 V. The cone and desolvation gas (N2) flows were set at 75 and 800 (L/h), respectively. […] Data were collected in centroid mode and the MS^E approach using a dynamic ramp of collision energy was carried out in two scan functions. Function 1 (low energy): mass scan ranged from 100–1000,with 0.2 s scan time and 0.05 s inter-scan delay; Function 2 (high energy): mass scan ranged from 100–1000 with 0.2 s scan time, 0.05 s inter-scan delay, and collision energy ramp of 10–40 V. MS/MS analysis were operated for major metabolites to obtain additional information from product ions since the same collision energy of MS^E in Function 2 could not match each precursor ion.

[4] = Stability of glucuronide metabolites in collected urine; assay type: physicochemical; settings: room temperature for an excessively long time, pH > 10
[5] = tested on: rats; assay: Observation of side effects during 21-day oral dosing for urine collection; assay type: in vivo, rat; settings: 15 rats, oral 100 mg/kg once a day for 21 consecutive days
Experimental: The urine samples used for isolating and purifying the metabolites were collected from 15 rats that were given VAS orally once a day, over 21 consecutive days, at dose of 100 mg/kg body weight. In total, approximately 5 L of urine was collected and centrifuged at 4000 × g for 15 min. The supernatant was then stored at −20°C until use. At the end of experiment, all rats were sacrificed by CO2 asphyxiation.
(§3) It illustrated that VAS is safe as a potential candidate drug.

[6] = target: T2, AChE from Electrophorus electricus; design: method as in PMID 23270245, doi:10.1155/2013/71723, PMID 24631841; settings: previous studies; ref [3], [6]–[8]; read-out: IC50 against AChE; cited from earlier work
[7] = Bioavailability studies of VAS (unpublished data of the laboratory); settings: in vivo, no published data; for half-life: read-out: elimination half-life (converted)
Description: as §3

[8] = LD50 determination of VAS (unpublished data); settings: in vivo; no published data
Description: as §3

[9] = target: T1, BChE from equine serum; design: method as in PMID 23270245, doi:10.1155/2013/71723, PMID 24631841; settings: previous studies; ref [3], [6]–[8]; read-out: IC50 against BChE; cited from earlier work
[10] = design: method as in ref [37] = [37]; 37 Bhide M , Naik P , Ghooi R . Comparative studies on the pharmacological evaluation of vasicine and vasicinone . Bull Haffkin Inst . 1976; 4 : 45 – 50 .; settings: comparable to sodium cromoglycate; ref [37]; cited from earlier work
[11] = design: method as in ref [36] = [36]; 36 Swamy G , Ravikumar K . Crystal and molecular structures of quinazolines: A ring conformational study . J Chem Crystallogr . 2005; 35 : 183 – 189 .; settings: in vitro and in vivo; ref [36]; cited from earlier work

SMILES: O=c1c2cc(O)ccc2nc2n1CCC2O (stereo not shown) [Metabolite M5-2, vasicinolone]
- IC50 [1]: 72.4 ± 8.63 µM
- SI (AChE selectivity index, IC50 BChE/IC50 AChE) [2]: 1.545
- IC50 [2]: 46.9 ± 2.84 µM

SMILES: O=C(O)C1OC(OC2CCN3Cc4ccccc4N=C23)C(O)C(O)C1O [Metabolite M20-2, 1,2,3,9-tetrahydropyrrolo [2,1-b] quinazolin-3-β-D-glucuronide]
- abundance in plasma [3]: high abundance
- stability in urine sample [4]: hydrolyzed
- fold reduction of BChE inhibitory activity [1]: 1027.7 fold
- IC50 [1]: 104 ± 15.5 µM
- SI (AChE selectivity index, IC50 BChE/IC50 AChE) [2]: 4.998
- IC50 [2]: 20.8 ± 0.329 µM

SMILES: O=C(O)[C@H]1O[C@@H](O[C@H]2CCn3c2nc2ccccc2c3=O)[C@H](O)[C@@H](O)[C@@H]1O [Metabolite M21-2, vasicinone-3-O-glucuronide]
- abundance in plasma [3]: high abundance
- stability in urine sample [4]: hydrolyzed

SMILES: OC1CCN2C1=Nc1ccccc1C2O (stereo not shown) [Metabolite M3-3, 1,2,3,9-tetrahydropyrrolo [2,1-b] quinazolin-3,9-diol]
- abundance in plasma [3]: high abundance

SMILES: O[C@H]1CCN2Cc3ccccc3N=C12 [Metabolite M0, Vasicine]
- observable side effects [5]: no any observable side effects
- IC50 [6]: 3.24 ± 0.08 µM
- IC50 [1]: 0.101 ± 0.003 µM
- half-life ([7]; after intravenous administration): ~5 h
- bioavailability ([7]; after oral administration, read-out: absolute bioavailability): ~50%
- half-life ([7]; after oral administration): ~1.5 h
- LD50 [8]: 308 mg/kg
- SI (AChE selectivity index, IC50 BChE/IC50 AChE) [2]: 0.030
- IC50 [2]: 3.38 ± 0.03 µM
- IC50 [9]: 0.1 µM

SMILES: Oc1ccc2c(c1)CN1CCC(O)C1=N2 (stereo not shown) [Metabolite M3-2, vasicinol]
- IC50 [1]: 2.46 ± 0.224 µM
- SI (AChE selectivity index, IC50 BChE/IC50 AChE) [2]: 0.930
- IC50 [2]: 2.65 ± 0.432 µM

SMILES: O=c1c2ccccc2nc2n1CCC2OS(=O)(=O)O (stereo not shown) [Metabolite M16, 9-oxo-1,2,3,9-tetrahydropyrrolo [2,1-b] quinazolin-3-yl hydrogen sulfate]
- abundance in plasma [3]: high abundance
- fold reduction of BChE inhibitory activity [1]: 2.8 fold
- IC50 [1]: 27.3 ± 5.03 µM
- SI (AChE selectivity index, IC50 BChE/IC50 AChE) [2]: 0.069
- fold reduction of AChE inhibitory activity [2]: 8.0 fold
- IC50 [2]: 395 ± 19.5 µM

SMILES: O=S(=O)(O)OC1CCN2Cc3ccccc3N=C12 (stereo not shown) [Metabolite M15, 1,2,3,9-tetrahydropyrrolo [2,1-b] quinazolin-3-yl hydrogen sulfate]
- abundance in plasma [3]: high abundance
- IC50 [1]: 9.82 ± 0.925 µM
- SI (AChE selectivity index, IC50 BChE/IC50 AChE) [2]: 0.198
- IC50 [2]: 49.6 ± 2.77 µM

SMILES: O=c1c2ccccc2nc2n1CCC2O (stereo not shown) [Metabolite M1, vasicinone]
- abundance in plasma [3]: high abundance
- anti-asthmatic activity compared with VAS [10]: more potent anti-asthmatic activity than VAS
- fold reduction of BChE inhibitory activity [1]: 101.0 fold
- IC50 [1]: 10.2 ± 2.08 µM
- SI (AChE selectivity index, IC50 BChE/IC50 AChE) [2]: 0.133
- fold reduction of AChE inhibitory activity [2]: 22.7 fold
- IC50 [2]: 76.6 ± 8.46 µM
- bronchodilatory effects compared with VAS [11]: more bronchodilatory effects than parent VAS

From publication PMC4388757, “In Vitro and In Vivo Metabolism and Inhibitory Activities of Vasicine, a Potent Acetylcholinesterase and Butyrylcholinesterase Inhibitor” (PLoS ONE, 2015)
